What was measured:
Parameters in all cases: scale not given here
[1] = system: SETVI Foxtail, Green; assay: Postemergence herbicidal evaluation, SETVI; type: in vivo, Setaria viridis, (L.) Beau; settings: postemergence spray, rated about two-three weeks after treatment
Description: (§1) In this evaluation, seedling plants are grown in jiffy flats for about two weeks. The test compounds are dispersed in 80/20 acetone/water mixtures containing 1.0% SUN-IT® II, a methylated seed oil, in sufficient quantities to provide the equivalent of about 0.006 kg to 0.400 kg per hectare of active compound when applied to the plants through a spray nozzle operating at 40 psi for a predetermined time. After spraying, the plants are placed on greenhouse benches and are cared for in accordance with conventional greenhouse procedures. Approximately two - three weeks after treatment, the seedling plants are examined and rated according to the rating system set forth below. Where more than one test is involved for a given compound, the data are averaged.

[2] = system: SETVI Foxtail, Green; assay: Preemergence herbicidal evaluation, SETVI; type: in vivo, Setaria viridis, (L.) Beau; settings: preemergence
Description: (§2) The preemergence herbicidal activity of the test compounds of the present invention is exemplified by the following tests in which the seeds of a variety of monocotyledonous and dicotyledonous plants are separately mixed with potting soil and planted on top of approximately one inch of soil in separate pint cups. […] The treated cups are then placed on greenhouse benches, watered and cared for in accordance with conventional greenhouse procedures. From four to five weeks after treatment, the tests are terminated and each cup is examined and rated according to the rating system provided in Example 46.

[3] = system: IPOHE Morningglory, Ivyleaf; assay: Postemergence herbicidal evaluation, IPOHE; type: in vivo, Ipomoea hederacea, (L.) Jacq.; settings: postemergence spray, rated about two-three weeks after treatment
Description: as §1

[4] = system: ECHOG Barnyardgrass; assay: Preemergence herbicidal evaluation, ECHOG; type: in vivo, Echinochloa crus-galli, (L.) Beau; settings: preemergence
Description: as §2

[5] = system: CHEAL Lambsquarters, Common; assay: Postemergence herbicidal evaluation, CHEAL; type: in vivo, Chenopodium album, L.; settings: postemergence spray, rated about two-three weeks after treatment
Description: as §1

[6] = system: ORYSAT Rice, Tebonnet; assay: Preemergence herbicidal evaluation, ORYSAT; type: in vivo, Oryza sativa, (L.); settings: preemergence
Description: as §2

[7] = system: GLXMAW Soybean, Williams; assay: Preemergence herbicidal evaluation, GLXMAW; type: in vivo, Glycine max, (L.) Merr. cv Williams; settings: preemergence
Description: as §2

[8] = system: ORYSAT Rice, Tebonnet; assay: Postemergence herbicidal evaluation, ORYSAT; type: in vivo, Oryza sativa, (L.); settings: postemergence spray, rated about two-three weeks after treatment
Description: as §1

[9] = system: IPOHE Morningglory, Ivyleaf; assay: Preemergence herbicidal evaluation, IPOHE; type: in vivo, Ipomoea hederacea, (L.) Jacq.; settings: preemergence
Description: as §2

[10] = system: CASOB Sicklepod; assay: Postemergence herbicidal evaluation, CASOB; type: in vivo, Cassia obtusifolia, L.; settings: postemergence spray, rated about two-three weeks after treatment
Description: as §1

[11] = system: TRZAWR Wheat, Winter, cv Riband; assay: Preemergence herbicidal evaluation, TRZAWR; type: in vivo, Triticum aestivum; settings: preemergence
Description: as §2

[12] = system: GALAP Galium; assay: Preemergence herbicidal evaluation, GALAP; type: in vivo, Galium aparine; settings: preemergence
Description: as §2

For `CCc1ccccc1-n1nnc2cc(F)c(-n3c(=O)cc(C(F)(F)F)n(C)c3=O)cc21` [Example 25], the “Postemergence herbicidal rating SETVI” value ([1]; 0.008 kg/ha) was 0.0, the “Postemergence herbicidal rating SETVI” value ([1]; 0.016 kg/ha) was 0.0 and the “Postemergence herbicidal rating SETVI” value ([1]; 0.032 kg/ha) was 3.0. The “Postemergence herbicidal rating SETVI” value ([1]; 0.062 kg/ha) was 7.0, the SETVI herbicidal rating ([2]; rate 0.016 kg/ha) was 0.0 and the SETVI herbicidal rating ([2]; rate 0.032 kg/ha) was 3.5. The SETVI herbicidal rating ([2]; rate 0.062 kg/ha) was 9.0, the SETVI herbicidal rating ([2]; rate 0.125 kg/ha) was 9.0 and the “Postemergence herbicidal rating IPOHE” value ([3]; 0.008 kg/ha) was 2.0. For the same compound, the “Postemergence herbicidal rating IPOHE” value ([3]; 0.016 kg/ha) was 3.0, the “Postemergence herbicidal rating IPOHE” value ([3]; 0.032 kg/ha) was 9.0 and the “Postemergence herbicidal rating IPOHE” value ([3]; 0.062 kg/ha) was 9.0. It also gave an ECHCG herbicidal rating ([4]; rate 0.016 kg/ha) of 0.0, an ECHCG herbicidal rating ([4]; rate 0.032 kg/ha) of 0.0 and an ECHCG herbicidal rating ([4]; rate 0.062 kg/ha) of 2.0. The ECHCG herbicidal rating ([4]; rate 0.125 kg/ha) was 8.0, the “Postemergence herbicidal rating CHEAL” value ([5]; 0.008 kg/ha) was 3.0 and the “Postemergence herbicidal rating CHEAL” value ([5]; 0.016 kg/ha) was 9.0. For the same compound, the “Postemergence herbicidal rating CHEAL” value ([5]; 0.032 kg/ha) was 9.0, the “Postemergence herbicidal rating CHEAL” value ([5]; 0.062 kg/ha) was 9.0 and the ORYSAT herbicidal rating ([6]; rate 0.016 kg/ha) was 0.0. For the same compound, the ORYSAT herbicidal rating ([6]; rate 0.032 kg/ha) was 0.0, the ORYSAT herbicidal rating ([6]; rate 0.062 kg/ha) was 0.0 and the ORYSAT herbicidal rating ([6]; rate 0.125 kg/ha) was 1.5. The GLXMAW herbicidal rating ([7]; rate 0.016 kg/ha) was 0.0, the GLXMAW herbicidal rating ([7]; rate 0.032 kg/ha) was 0.0 and the GLXMAW herbicidal rating ([7]; rate 0.062 kg/ha) was 2.0. The GLXMAW herbicidal rating ([7]; rate 0.125 kg/ha) was 1.5, the “Postemergence herbicidal rating ORYSAT” value ([8]; 0.008 kg/ha) was 0.5 and the “Postemergence herbicidal rating ORYSAT” value ([8]; 0.016 kg/ha) was 1.0. The “Postemergence herbicidal rating ORYSAT” value ([8]; 0.032 kg/ha) was 1.5, the “Postemergence herbicidal rating ORYSAT” value ([8]; 0.062 kg/ha) was 2.0 and the IPOHE herbicidal rating ([9]; rate 0.016 kg/ha) was 0.0. The IPOHE herbicidal rating ([9]; rate 0.032 kg/ha) was 4.5, the IPOHE herbicidal rating ([9]; rate 0.062 kg/ha) was 5.5 and the IPOHE herbicidal rating ([9]; rate 0.125 kg/ha) was 6.5. The “Postemergence herbicidal rating CASOB” value ([10]; 0.008 kg/ha) was 0.0, the “Postemergence herbicidal rating CASOB” value ([10]; 0.016 kg/ha) was 0.0 and the “Postemergence herbicidal rating CASOB” value ([10]; 0.032 kg/ha) was 0.0. For the same compound, the “Postemergence herbicidal rating CASOB” value ([10]; 0.062 kg/ha) was 1.0, the TRZAWR herbicidal rating ([11]; rate 0.016 kg/ha) was 0.0 and the TRZAWR herbicidal rating ([11]; rate 0.032 kg/ha) was 0.0. The TRZAWR herbicidal rating ([11]; rate 0.062 kg/ha) was 0.0, the TRZAWR herbicidal rating ([11]; rate 0.125 kg/ha) was 2.0 and the GALAP herbicidal rating ([12]; rate 0.016 kg/ha) was 0.0. It also gave a GALAP herbicidal rating ([12]; rate 0.032 kg/ha) of 0.0, a GALAP herbicidal rating ([12]; rate 0.062 kg/ha) of 0.0 and a GALAP herbicidal rating ([12]; rate 0.125 kg/ha) of 0.0.
